Measurements as given in the NIST ThermoML archive (doi:10.1021/je600554h).
Numbers after ± are expanded uncertainties.

Conditions: 101.33 kPa, Liquid; for viscosity: Capillary tube (Ostwald / Ubbelohde) method

SMILES | mass density (273.15 K) | viscosity (273.15 K) | mass density (278.15 K) | viscosity (278.15 K) | mass density (283.15 K) | viscosity (283.15 K) | mass density (288.15 K) | viscosity (288.15 K) | mass density (293.15 K) | mass density (298.15 K) | mass density (303.15 K) | mass density (308.15 K) | mass density (313.15 K) | mass density (318.15 K) | viscosity (293.15 K) | viscosity (298.15 K) | viscosity (303.15 K) | viscosity (308.15 K) | viscosity (313.15 K) | mass density (323.15 K) | other results
COC(C)(C)C [2-methoxy-2-methylpropane] | 761.34 ± 0.25 kg/m3 | 0.443 ± 0.009 mPa·s | 756.14 ± 0.26 kg/m3 | 0.417 ± 0.009 mPa·s | 751.02 ± 0.26 kg/m3 | 0.392 ± 0.008 mPa·s | 745.85 ± 0.27 kg/m3 | 0.37 ± 0.008 mPa·s | 740.65 ± 0.27 kg/m3 | 735.4 ± 0.27 kg/m3 | 730.1 ± 0.28 kg/m3 | 724.82 ± 0.28 kg/m3 | 719.42 ± 0.29 kg/m3 | 713.96 ± 0.29 kg/m3 | – | – | – | – | – | – | –
CCCCCCC [heptane] | 700.75 ± 0.62 kg/m3 | 0.526 ± 0.009 mPa·s | 696.59 ± 0.62 kg/m3 | 0.495 ± 0.009 mPa·s | 692.42 ± 0.63 kg/m3 | 0.465 ± 0.009 mPa·s | 688.22 ± 0.64 kg/m3 | 0.438 ± 0.009 mPa·s | 684 ± 0.64 kg/m3 | 679.75 ± 0.65 kg/m3 | 675.48 ± 0.66 kg/m3 | 671.19 ± 0.66 kg/m3 | 666.86 ± 0.67 kg/m3 | 662.5 ± 0.68 kg/m3 | 0.415 ± 0.009 mPa·s | 0.392 ± 0.009 mPa·s | 0.372 ± 0.008 mPa·s | 0.354 ± 0.008 mPa·s | 0.336 ± 0.008 mPa·s | 658.11 ± 0.68 kg/m3 | mass density (328.15 K): 653.68 ± 0.69 kg/m3; mass density (333.15 K): 649.22 ± 0.7 kg/m3; mass density (338.15 K): 644.72 ± 0.71 kg/m3; mass density (343.15 K): 640.17 ± 0.71 kg/m3; mass density (348.15 K): 635.58 ± 0.72 kg/m3; mass density (353.15 K): 630.41 ± 0.73 kg/m3; mass density (358.15 K): 626.34 ± 0.74 kg/m3
CCCCCCCC [octane] | 718.58 ± 0.6 kg/m3 | 0.718 ± 0.009 mPa·s | 714.61 ± 0.61 kg/m3 | 0.671 ± 0.009 mPa·s | 710.62 ± 0.62 kg/m3 | 0.623 ± 0.009 mPa·s | 706.62 ± 0.62 kg/m3 | 0.584 ± 0.009 mPa·s | 702.61 ± 0.63 kg/m3 | 698.57 ± 0.64 kg/m3 | 694.52 ± 0.64 kg/m3 | 690.44 ± 0.65 kg/m3 | 686.35 ± 0.65 kg/m3 | 682.23 ± 0.66 kg/m3 | 0.545 ± 0.009 mPa·s | 0.514 ± 0.009 mPa·s | 0.486 ± 0.009 mPa·s | 0.459 ± 0.009 mPa·s | 0.434 ± 0.009 mPa·s | 678.09 ± 0.67 kg/m3 | viscosity (318.15 K): 0.415 ± 0.009 mPa·s; viscosity (323.15 K): 0.394 ± 0.009 mPa·s; mass density (328.15 K): 673.92 ± 0.67 kg/m3; viscosity (328.15 K): 0.375 ± 0.009 mPa·s; mass density (333.15 K): 669.71 ± 0.68 kg/m3; viscosity (333.15 K): 0.357 ± 0.008 mPa·s; mass density (338.15 K): 665.51 ± 0.69 kg/m3; mass density (343.15 K): 661.24 ± 0.69 kg/m3; mass density (348.15 K): 656.96 ± 0.7 kg/m3; mass density (353.15 K): 652.63 ± 0.71 kg/m3; mass density (358.15 K): 648.26 ± 0.72 kg/m3; mass density (363.15 K): 643.85 ± 0.72 kg/m3
